Test: xn = mol fraction of the nth substance listed

O=S(=O)([O-])[O-].[Na+].[Na+] + O
Conditions | viscosity [mPa·s]
293.15 K, 100 kPa, x1 = 0.003594 | 1.085
293.15 K, 100 kPa, x1 = 0.004923 | 1.125
293.15 K, 100 kPa, x1 = 0.01069 | 1.29
293.15 K, 100 kPa, x1 = 0.01596 | 1.483
293.15 K, 100 kPa, x1 = 0.02116 | 1.67
293.15 K, 100 kPa, x1 = 0.02795 | 1.939
293.15 K, 101.3 kPa, x1 = 0.0009 | 1.025
293.15 K, 101.3 kPa, x1 = 0.0018 | 1.046
293.15 K, 101.3 kPa, x1 = 0.00893 | 1.236
293.15 K, 101.3 kPa, x1 = 0.0125 | 1.349
293.15 K, 101.3 kPa, x1 = 0.0177 | 1.548
293.15 K, 101.3 kPa, x1 = 0.02116 | 1.701
298.15 K, 100 kPa, x1 = 6e-05 | 0.8907
298.15 K, 100 kPa, x1 = 0.00013 | 0.8915
298.15 K, 100 kPa, x1 = 0.00025 | 0.8935
298.15 K, 100 kPa, x1 = 0.00038 | 0.8955
298.15 K, 100 kPa, x1 = 0.003594 | 0.967
298.15 K, 100 kPa, x1 = 0.01069 | 1.148
298.15 K, 100 kPa, x1 = 0.01596 | 1.315
298.15 K, 100 kPa, x1 = 0.02116 | 1.508
298.15 K, 100 kPa, x1 = 0.02795 | 1.766
298.15 K, 101 kPa, x1 = 0.00893 | 1.099
298.15 K, 101 kPa, x1 = 0.0168 | 1.349
298.15 K, 101 kPa, x1 = 0.0222 | 1.556
298.15 K, 101 kPa, x1 = 0.03141 | 2.023
298.15 K, 101.3 kPa, x1 = 0.0009 | 0.9113
298.15 K, 101.3 kPa, x1 = 0.0018 | 0.9298
298.15 K, 101.3 kPa, x1 = 0.00893 | 1.1
298.15 K, 101.3 kPa, x1 = 0.0125 | 1.201
298.15 K, 101.3 kPa, x1 = 0.0177 | 1.374
298.15 K, 101.3 kPa, x1 = 0.02116 | 1.505
298.15 K, 101.3 kPa, x1 = 0.02631 | 1.72
298.15 K, 101.33 kPa, x1 = 0.03319 | 1.746
303.15 K, 100 kPa, x1 = 0.003594 | 0.868
303.15 K, 100 kPa, x1 = 0.01069 | 1.025
303.15 K, 100 kPa, x1 = 0.01596 | 1.171
303.15 K, 100 kPa, x1 = 0.02116 | 1.343
303.15 K, 100 kPa, x1 = 0.02795 | 1.584
303.15 K, 101.3 kPa, x1 = 0.0009 | 0.8166
303.15 K, 101.3 kPa, x1 = 0.0018 | 0.8339
303.15 K, 101.3 kPa, x1 = 0.00893 | 0.9866
303.15 K, 101.3 kPa, x1 = 0.0125 | 1.076
303.15 K, 101.3 kPa, x1 = 0.0177 | 1.229
303.15 K, 101.3 kPa, x1 = 0.02116 | 1.345
303.15 K, 101.3 kPa, x1 = 0.02631 | 1.531
308.15 K, 100 kPa, x1 = 6e-05 | 0.7195
308.15 K, 100 kPa, x1 = 0.00013 | 0.7205
308.15 K, 100 kPa, x1 = 0.00025 | 0.722
308.15 K, 100 kPa, x1 = 0.00038 | 0.724
308.15 K, 100 kPa, x1 = 0.00128 | 0.7637
308.15 K, 100 kPa, x1 = 0.003594 | 0.787
308.15 K, 100 kPa, x1 = 0.01069 | 0.933
308.15 K, 100 kPa, x1 = 0.01596 | 1.053
308.15 K, 100 kPa, x1 = 0.02116 | 1.205
308.15 K, 100 kPa, x1 = 0.02795 | 1.419
308.15 K, 101.3 kPa, x1 = 0.0009 | 0.7374
308.15 K, 101.3 kPa, x1 = 0.0018 | 0.7529
308.15 K, 101.3 kPa, x1 = 0.00893 | 0.8914
308.15 K, 101.3 kPa, x1 = 0.0125 | 0.9716
308.15 K, 101.3 kPa, x1 = 0.0177 | 1.107
308.15 K, 101.3 kPa, x1 = 0.02116 | 1.21
308.15 K, 101.3 kPa, x1 = 0.02631 | 1.373
308.65 K, 100 kPa, x1 = 0.004923 | 0.803
318.15 K, 101.3 kPa, x1 = 0.0009 | 0.6114
318.15 K, 101.3 kPa, x1 = 0.0018 | 0.624
318.15 K, 101.3 kPa, x1 = 0.00893 | 0.7405
318.15 K, 101.3 kPa, x1 = 0.0125 | 0.8058
318.15 K, 101.3 kPa, x1 = 0.0177 | 0.916
318.15 K, 101.3 kPa, x1 = 0.02116 | 0.9978
318.15 K, 101.3 kPa, x1 = 0.02631 | 1.127
323.15 K, 101 kPa, x1 = 0.00893 | 0.676
323.15 K, 101 kPa, x1 = 0.0168 | 0.819
323.15 K, 101.33 kPa, x1 = 0.05655 | 1.545

CC(N)=O + O=C1CCCCCN1
101 kPa, x2 = 0.5
Conditions | viscosity [mPa·s]
303.1 K | 66.67
313.1 K | 32.87
323.1 K | 22.69

CC(=O)N(C)C + OCCO
308.15 K, 101 kPa
Conditions | viscosity [mPa·s]
x2 = 0.1632 | 1.166
x2 = 0.2752 | 1.388
x2 = 0.4068 | 1.611
x2 = 0.5162 | 2.416
x2 = 0.6269 | 3.622
x2 = 0.7125 | 4.662
x2 = 0.7974 | 5.882
x2 = 0.8652 | 7.289
x2 = 0.9339 | 8.916

O=[N+]([O-])c1ccccc1O + c1ccc2ncccc2c1
viscosity [mPa·s], 101 kPa
Conditions | 303.15 K | 313.15 K
x1 = 0.1011 | 3.361 | 2.66
x1 = 0.2021 | 3.772 | 2.928
x1 = 0.2913 | 4.125 | 3.16
x1 = 0.3982 | 4.495 | 3.375
x1 = 0.4731 | 4.68 | 3.465
x1 = 0.5638 | 4.72 | 3.47
x1 = 0.6538 | 4.595 | 3.41
x1 = 0.7624 | 4.355 | 3.25
x1 = 0.8131 | 4.22 | 3.151
x1 = 0.8588 | 4.09 | 3.059
x1 = 0.9056 | 3.95 | 2.955
x1 = 0.9521 | – | 2.855

BrC(Br)(Br)Br + c1ccccc1
298.15 K, 101 kPa
Conditions | viscosity [mPa·s]
x1 = 0.1 | 0.8303
x1 = 0.2 | 1.122
x1 = 0.3 | 1.464
x1 = 0.4 | 1.839
x1 = 0.5 | 2.235
x1 = 0.6 | 2.636
x1 = 0.7 | 3.026
x1 = 0.8 | 3.391
x1 = 0.9 | 3.716

CCCCCCCCCO + c1ccccc1
viscosity [mPa·s], 100 kPa
Conditions | x2 = 0.0841 | x2 = 0.1721 | x2 = 0.2502 | x2 = 0.3634 | x2 = 0.4529 | x2 = 0.5631 | x2 = 0.6508 | x2 = 0.7569 | x2 = 0.8448 | x2 = 0.9503
293.15 K | 9.518 | 7.891 | 6.648 | 5.055 | 3.95 | 2.851 | 2.158 | 1.469 | 1.089 | 0.766
303.15 K | 6.477 | 5.231 | 4.302 | 3.268 | 2.618 | 1.931 | 1.474 | 1.067 | 0.824 | 0.628
313.15 K | 4.537 | 3.665 | 3.011 | 2.228 | 1.762 | 1.327 | 1.045 | 0.807 | 0.675 | 0.542
323.15 K | 3.323 | 2.677 | 2.203 | 1.656 | 1.318 | 1.005 | 0.817 | 0.662 | 0.56 | 0.474
